The record followed here is patent US8466155B2, “Pyrimidines” (Boehringer Ingelheim International GmbH, priority 2009, dated 2013).

A word on the IC50: it is the concentration that gives 50% inhibition.

For this experiment, the target named is T1, PTK2 (Homo sapiens, UniProt Q05397).
T1 construct: purchased Invitrogen PV3832
Nature of the experiment: PTK2 enzyme test, Assay 2 (DELFIA, PT66 antibody). The class given is biochemical. As to conditions: values marked (*), read-out: PTK2 1 h IC50. The text has this: This test uses active PTK2 enzyme (Invitrogen Code PV3832) and poly-Glu-Tyr (4:1, Sigma P-0275) as the kinase substrate. The kinase activity is detected by means of the phosphorylation of the substrate in a DELFIA™ assay. The phosphorylated substrate is detected with the europium-labelled phosphotyrosine antibody PT66 (Perkin Elmer, No.: AD0040).
In order to determine concentration-activity curves with PTK2-inhibitors the compounds are serially diluted first of all in 100% DMSO and then in kinase dilution buffer (20 mM TRIS/HCl pH 7.5, 0.1 mM EDTA, 0.1 mM EGTA, 0.286 mM sodium orthovanadate, 10% glycerol with the addition of freshly prepared BSA (fraction V, 1 mg/mL) and DTT (1 mM)) and 10 μL of each dilution are dispensed per well in a 96-well microtitre plate (clear U-shaped base plate, Greiner No. 650101) (the inhibitors are tested in duplicates) and mixed with 10 μL/well of PTK2 kinase (0.01 μg/well). PTK2 kinase is diluted accordingly beforehand with kinase dilution buffer. […]
The time-delayed europium fluorescence is then measured in a microtitre plate reader (VICTOR^3, Perkin Elmer). […]
The IC50 values are determined from concentration-activity analyses by iterative calculation using a sigmoid curve analysis algorithm (FIFTY, based on GraphPAD Prism Version 3.03) with a variable Hill coefficient.

T1 sequence (Q05397 whole entry): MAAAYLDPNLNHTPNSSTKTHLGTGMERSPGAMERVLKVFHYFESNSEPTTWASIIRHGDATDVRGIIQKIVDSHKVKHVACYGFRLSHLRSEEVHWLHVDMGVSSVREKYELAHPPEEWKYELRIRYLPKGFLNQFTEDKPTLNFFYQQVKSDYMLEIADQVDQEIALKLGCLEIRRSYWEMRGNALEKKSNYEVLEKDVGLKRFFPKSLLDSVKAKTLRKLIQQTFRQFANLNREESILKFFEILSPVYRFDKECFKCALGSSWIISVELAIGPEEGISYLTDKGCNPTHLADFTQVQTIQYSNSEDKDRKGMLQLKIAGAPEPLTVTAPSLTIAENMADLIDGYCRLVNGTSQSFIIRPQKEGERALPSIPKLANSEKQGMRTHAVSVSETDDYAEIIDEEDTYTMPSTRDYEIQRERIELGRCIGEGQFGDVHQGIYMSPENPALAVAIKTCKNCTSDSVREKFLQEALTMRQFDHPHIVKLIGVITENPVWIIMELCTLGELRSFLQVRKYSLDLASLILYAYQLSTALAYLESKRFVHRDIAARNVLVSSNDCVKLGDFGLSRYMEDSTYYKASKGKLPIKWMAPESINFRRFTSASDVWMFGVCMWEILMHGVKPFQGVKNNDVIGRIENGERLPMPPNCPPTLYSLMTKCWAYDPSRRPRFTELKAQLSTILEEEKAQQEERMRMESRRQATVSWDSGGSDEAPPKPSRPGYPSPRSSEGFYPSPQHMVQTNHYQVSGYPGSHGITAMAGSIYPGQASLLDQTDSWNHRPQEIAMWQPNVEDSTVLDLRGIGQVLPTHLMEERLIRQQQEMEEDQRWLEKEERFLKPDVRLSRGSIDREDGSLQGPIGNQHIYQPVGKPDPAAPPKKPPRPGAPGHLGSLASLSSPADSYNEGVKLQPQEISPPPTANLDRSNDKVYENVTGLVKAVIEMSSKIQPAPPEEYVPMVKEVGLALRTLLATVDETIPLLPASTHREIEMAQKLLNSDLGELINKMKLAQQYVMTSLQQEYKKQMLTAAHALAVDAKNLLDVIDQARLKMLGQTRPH

On to `COc1ccc(C(=O)NC2CCN(C)CC2)cc1Nc1ncc(C(F)(F)F)c(O[C@@H]2Cc3ccccc3[C@H]2N(C)S(C)(=O)=O)n1` [Example 79, 3-{4-[(1R,2R)-1-(methanesulphonyl-methyl-amino)-indan-2-yloxy]-5-trifluoromethyl-pyrimidin-2-ylamino}-4-methoxy-N-(1-methyl-piperidin-4-yl)-benzamide], for which the IC50 stood at 0.4 nM.
Next, `COc1cc(N2CCN(C(C)(C)C)CC2)ccc1Nc1ncc(C(F)(F)F)c(O[C@@H]2Cc3ccccc3[C@H]2N(C)S(C)(=O)=O)n1` [Example 90, N-((1R,2R)-2-{2-[4-(4-tert-butyl-piperazin-1-yl)-2-methoxy-phenylamino]-5-trifluoromethyl-pyrimidin-4-yloxy}-indan-1-yl)-N-methyl-methanesulphonamide]: 0.85 nM.
